ChEMBL document CHEMBL3085700 (J Med Chem, 2013)
The source made the active and inactive calls. The rule behind the calls is not given here.

Assays:
Homo sapiens = species on record: Homo sapiens; test: Selectivity ratio for human recombinant FAAH over human recombinant MAGL
[1] = molecular target: T1, Monoacylglycerol lipase ABHD6 (Homo sapiens) (UniProt Q9BV23); test: Inhibition of human ABHD6 overexpressed in HEK293 cells assessed as 2-AG hydrolysis at 1 uM by fluorescent glycerol assay; type: cell-based
T1 sequence (whole entry): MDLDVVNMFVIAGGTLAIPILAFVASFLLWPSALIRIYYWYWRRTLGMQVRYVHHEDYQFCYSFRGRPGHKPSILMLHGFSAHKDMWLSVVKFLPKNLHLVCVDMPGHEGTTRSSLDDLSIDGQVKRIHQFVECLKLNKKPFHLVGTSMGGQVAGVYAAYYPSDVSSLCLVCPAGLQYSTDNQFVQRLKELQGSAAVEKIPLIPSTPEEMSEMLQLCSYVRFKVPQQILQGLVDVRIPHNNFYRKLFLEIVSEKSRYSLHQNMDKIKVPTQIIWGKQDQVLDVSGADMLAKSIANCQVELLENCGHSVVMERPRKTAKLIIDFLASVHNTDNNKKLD

[2] = molecular target: T2, Prostaglandin G/H synthase 2 (Homo sapiens) (UniProt P35354); test: Inhibition of human recombinant COX-2 assessed as inhibition of 2-AG cyclooxygenation at 10 uM measured within 10 to 50 secs relative to control
T2 sequence (whole entry): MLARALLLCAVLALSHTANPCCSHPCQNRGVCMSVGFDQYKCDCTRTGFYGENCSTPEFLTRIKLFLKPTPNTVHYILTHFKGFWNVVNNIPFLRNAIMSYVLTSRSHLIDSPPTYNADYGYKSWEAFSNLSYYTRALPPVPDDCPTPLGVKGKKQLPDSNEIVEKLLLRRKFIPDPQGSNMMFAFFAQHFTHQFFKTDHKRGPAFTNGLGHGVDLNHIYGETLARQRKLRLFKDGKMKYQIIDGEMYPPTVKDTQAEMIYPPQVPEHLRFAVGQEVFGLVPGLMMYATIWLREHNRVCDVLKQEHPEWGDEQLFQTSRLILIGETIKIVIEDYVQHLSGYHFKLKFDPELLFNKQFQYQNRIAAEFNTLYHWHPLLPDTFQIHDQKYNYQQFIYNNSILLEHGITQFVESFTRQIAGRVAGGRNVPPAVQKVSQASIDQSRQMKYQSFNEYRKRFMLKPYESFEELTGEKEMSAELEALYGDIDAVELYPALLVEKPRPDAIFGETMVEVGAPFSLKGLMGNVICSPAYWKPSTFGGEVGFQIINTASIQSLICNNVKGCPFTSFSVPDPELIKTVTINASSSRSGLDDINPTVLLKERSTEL

[3] = molecular target: T3, Fatty-acid amide hydrolase 1 (Mus musculus) (UniProt O08914); test: Inhibition of TAMRA-FP-labeled FAAH in mouse brain membrane after 1 hr by fluorescent gel scanning assay; type: cell membranes
T3 sequence (whole entry): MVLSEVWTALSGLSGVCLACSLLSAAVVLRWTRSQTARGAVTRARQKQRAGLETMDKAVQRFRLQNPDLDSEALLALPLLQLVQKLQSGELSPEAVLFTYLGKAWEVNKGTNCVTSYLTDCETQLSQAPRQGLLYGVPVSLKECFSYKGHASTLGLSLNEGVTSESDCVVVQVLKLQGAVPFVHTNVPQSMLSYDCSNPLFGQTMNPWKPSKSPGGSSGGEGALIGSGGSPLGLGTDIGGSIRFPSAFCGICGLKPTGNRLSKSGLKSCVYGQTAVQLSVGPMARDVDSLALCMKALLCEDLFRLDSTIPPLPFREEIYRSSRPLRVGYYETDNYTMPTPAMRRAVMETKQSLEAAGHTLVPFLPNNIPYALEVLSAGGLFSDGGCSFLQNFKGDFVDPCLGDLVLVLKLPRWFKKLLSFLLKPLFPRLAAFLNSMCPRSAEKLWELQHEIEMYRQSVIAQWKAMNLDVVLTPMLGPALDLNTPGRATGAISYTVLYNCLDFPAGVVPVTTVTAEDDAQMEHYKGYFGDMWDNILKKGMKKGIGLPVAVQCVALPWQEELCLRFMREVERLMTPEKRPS

[4] = molecular target: T4, Fatty-acid amide hydrolase 1 (Homo sapiens) (UniProt O00519); test: Inhibition of human recombinant FAAH overexpressed in African green monkey COS7 cells using [3H]-anandamide as substrate at 10 to 100 uM preincubated for 10 to 60 mins by liquid scintillation counting analysis; type: cell-based; conditions: COS-7
T4 sequence (whole entry): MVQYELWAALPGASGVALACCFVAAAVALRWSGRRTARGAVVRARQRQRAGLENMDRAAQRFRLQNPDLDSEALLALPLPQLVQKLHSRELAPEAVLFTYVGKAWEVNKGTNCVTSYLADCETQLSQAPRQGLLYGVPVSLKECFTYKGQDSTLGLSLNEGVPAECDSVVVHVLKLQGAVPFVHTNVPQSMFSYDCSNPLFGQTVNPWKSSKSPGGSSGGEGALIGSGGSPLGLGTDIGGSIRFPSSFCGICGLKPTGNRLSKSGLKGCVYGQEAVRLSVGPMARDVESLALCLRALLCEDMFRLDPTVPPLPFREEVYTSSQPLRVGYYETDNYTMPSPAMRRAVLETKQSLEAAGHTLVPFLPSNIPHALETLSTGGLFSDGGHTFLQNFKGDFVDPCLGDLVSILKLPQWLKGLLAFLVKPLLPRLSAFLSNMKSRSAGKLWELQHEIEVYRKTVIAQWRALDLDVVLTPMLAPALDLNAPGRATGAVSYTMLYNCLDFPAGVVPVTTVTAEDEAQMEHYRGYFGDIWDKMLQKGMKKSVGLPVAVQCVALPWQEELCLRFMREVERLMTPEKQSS

[5] = molecular target: T5, Monoglyceride lipase (Homo sapiens) (UniProt Q99685); test: Inhibition of human recombinant MAGL overexpressed in HEK cells using 2-AG as substrate at 10 uM preincubated for 10 mins before substrate addition measured after 10 mins by HPLC analysis relative to control; type: cell-based; conditions: HEK293
T5 sequence (whole entry): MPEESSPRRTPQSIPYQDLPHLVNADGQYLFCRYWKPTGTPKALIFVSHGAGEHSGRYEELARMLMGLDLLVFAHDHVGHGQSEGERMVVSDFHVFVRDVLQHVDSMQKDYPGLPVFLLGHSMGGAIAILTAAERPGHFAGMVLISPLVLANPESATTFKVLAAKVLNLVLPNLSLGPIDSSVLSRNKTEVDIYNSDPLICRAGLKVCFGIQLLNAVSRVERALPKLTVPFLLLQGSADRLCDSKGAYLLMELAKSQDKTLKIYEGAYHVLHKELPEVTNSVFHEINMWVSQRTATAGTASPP

COc1nn([C@@H](C)c2ccc(CC(C)C)cc2)c(=O)o1
Selectivity ratio (Homo sapiens): > 900 | inhibition [1]: inactive | inhibition [2]: 10% | inhibition [3]: Dose-dependent effect | inhibition [4]: Active | inhibition [5]: 16%
